From patent US20140031217A1, “HERBICIDAL COMPOSITIONS COMPRISING 4-AMINO-3-CHLORO-5-FLUORO-6-(4-CHLORO-2-FLUORO-3-METHOXYPHENYL)PYRIDINE-2-CARBOXYLIC ACID OR A DERIVATIVE THEREOF AND AUXIN TRANSPORT INHIBITORS” (DOW AGROSCIENCES LLC, priority 2012, published 2014)

Tests used:
BRAPP = assay: Postemergence foliar-applied greenhouse weed control, BRAPP; type: in vivo, Brachiaria platyphylla (Griseb.) Nash
Excerpt: (§1) Seeds or nutlets of the desired test plant species were planted in a soil matrix prepared by mixing a loam or sandy loam soil (e.g., 28.6 percent silt, 18.8 percent clay, and 52.6 percent sand, with a pH of about 5.8 and an organic matter content of about 1.8 percent) and calcareous grit in an 80 to 20 ratio. The soil matrix was contained in plastic pots with a volume of 1 quart and a surface area of 83.6 square centimeters (cm^2). When required to ensure good germination and healthy plants, a fungicide treatment and/or other chemical or physical treatment was applied. The plants were grown for 8-22 days in a greenhouse with an approximate 14 h photoperiod which was maintained at about 29° C. during the day and 26° C. during the night. Nutrients (Peters Excel® 15-5-15 5-Ca 2-Mg and iron chelate) were applied in the irrigation solution as needed and water was added on a regular basis. Supplemental lighting was provided with overhead metal halide 1000-Watt lamps as necessary. The plants were employed for testing when they reached the first through fourth true leaf stage.
(§2) Treatments consisted of the acid or esters of 4-amino-3-chloro-5-fluoro-6-(4-chloro-2-fluoro-3-methoxy-phenyl) pyridine-2-carboxylic acid (Compound A), each formulated as an SC (suspension concentrate), and various herbicidal components alone and in combination. Forms of compound A were applied on an acid equivalent basis.
(§3) Other herbicidal components were applied on an active ingredient basis and included auxin transport inhibiting (ATI) herbicides chlorflurenol (technical material), chlorflurenol-methyl (technical material), diflufenzopyr (technical material), diflufenzopyr sodium (technical material), flurenol-methyl (technical material) and naptalam (technical material).
(§4) Treatment requirements were calculated based upon the rates being tested, the concentration of active ingredient or acid equivalent in the formulation, and a 12 mL application volume at a rate of 187 L/ha.
(§5) For treatments comprised of formulated and technical compounds, weighed amounts of the technical materials were placed individually in 25 mL glass vials and dissolved in a volume of 97:3 v/v acetone/DMSO to obtain 12× stock solutions, and measured amounts of the formulated compounds were placed individually in 25 mL glass vials and diluted in a volume of 1.5% (v/v) crop oil concentrate or water to obtain 12× stock solutions. […] Application solutions were prepared by adding an appropriate amount of each stock solution (e.g., 1 mL) and diluted to the appropriate final concentrations with the addition of an appropriate amount of an aqueous mixture of 1.5% (v/v) crop oil concentrate so that the final spray solutions contained 1.25% (v/v) crop oil concentrate. When required, additional water and/or 97:3 v/v acetone/DMSO was added to individual application solutions so that the final acetone and DMSO concentrations of the application solutions being compared were 8.1% and 0.25%, respectively.
(§6) All stock solutions and applications solutions were visually inspected for compound compatibility prior to application. Spray solutions were applied to the plant material with an overhead Mandel track sprayer equipped with an 8002E nozzle calibrated to deliver 187 L/ha over an application area of 0.503 m^2 at a spray height of 18 to 20 inches (46 to 50 cm) above average plant canopy height. Control plants were sprayed in the same manner with the solvent blank.
(§7) The treated plants and control plants were placed in a greenhouse as described above and watered by sub-irrigation to prevent wash-off of the test compounds. After approximately 3 weeks, the condition of the test plants as compared with that of the untreated plants was determined visually and scored on a scale of 0 to 100 percent where 0 corresponds to no injury or growth inhibition and 100 corresponds to complete kill. […]

IPOHE = assay: Postemergence foliar-applied greenhouse weed control, IPOHE; type: in vivo, Ipomoea hederacea Jacq.
Excerpt: as §1, §2, §3, §4, §5, §6, §7

LEFCH = assay: Postemergence foliar-applied greenhouse weed control, LEFCH; type: in vivo, Leptochloa chinensis (L.) Nees
Excerpt: as §1, §2, §3, §4, §5, §6, §7

CYPRO = assay: In-water applied (paddy) greenhouse weed control, CYPRO; type: in vivo, Cyperus rotundus L.; conditions: 19 DAA
Description: (§8) Weed seeds or nutlets of the desired test plant species were planted in puddled soil (mud) prepared by mixing a shredded, non-sterilized mineral soil (50.5 percent silt, 25.5 percent clay, and 24 percent sand, with a pH of about 7.6 and an organic matter content of about 2.9 percent) and water at a 1:1 volumetric ratio. The prepared mud was dispensed in 365 mL aliquots into 16-ounce (oz.) non-perforated plastic pots with a surface area of 86.59 square centimeters (cm^2) leaving a headspace of 3 centimeters (cm) in each pot. Mud was allowed to dry overnight prior to planting or transplanting. Rice seeds were planted in Sun Gro MetroMix® 306 planting mixture, which typically has a pH of 6.0 to 6.8 and an organic matter content of about 30 percent, in plastic plug trays. Seedlings at the second or third leaf stage of growth were transplanted into 840 mL of mud contained in 32-oz. non-perforated plastic pots with a surface area of 86.59 cm^2 4 days prior to herbicide application. The paddy was created by filling the headspace of the pots with 2.5 to 3 cm of water. When required to ensure good germination and healthy plants, a fungicide treatment and/or other chemical or physical treatment was applied. The plants were grown for 4-22 days in a greenhouse with an approximate 14 h photoperiod which was maintained at about 29′C during the day and 26° C. during the night. Nutrients were added as Osmocote® (19:6:12, N:P:K+minor nutrients) at 2 g per 16-oz. pot and 4 g per 960-mL 32-oz. pot. Water was added on a regular basis to maintain the paddy flood, and supplemental lighting was provided with overhead metal halide 1000-Watt lamps as necessary. The plants were employed for testing when they reached the second or third true leaf stage.
(§9) Treatments consisted of the acid or esters of 4-amino-3-chloro-5-fluoro-6-(4-chloro-2-fluoro-3-methoxy-phenyl)pyridine-2-carboxylic acid (compound A) each formulated as an SC and various herbicidal components alone and in combination. Forms of compound A were applied on an acid equivalent basis.
(§10) Other herbicidal components were applied on an active ingredient basis and included auxin transport inhibiting (ATI) herbicides chlorflurenol-methyl (technical material), chlorflurenol (technical material), diflufenzopyr (technical material), dilfufenzopyr sodium (technical material), flurenol-methyl (technical material,) and naptalam (technical material).
(§11) Treatment requirements for each compound or herbicidal component were calculated based upon the rates being tested, the concentration of active ingredient or acid equivalent in the formulation, an application volume of 2 mL per component per pot, and an application area of 86.59 cm^2 per pot.
(§12) For formulated compounds, a measured amount was placed in an individual 100 or 200 mL glass vial and was dissolved in a volume of 1.25% (v/v) Agri-Dex® crop oil concentrate to obtain application solutions.
(§13) For technical grade compounds, a weighed amount was placed in an individual 100 to 200 mL glass vial and was dissolved in a volume of acetone to obtain concentrated stock solutions. […] The concentrated stock solutions obtained were diluted with an equivalent volume of an aqueous mixture containing 2.5% (v/v) crop oil concentrate so that the final application solutions contained 1.25% (v/v) crop oil concentrate.
(§14) Applications were made by injecting with a pipetter appropriate amounts of the application solutions, individually and sequentially, into the aqueous layer of the paddy. Control plants were treated in the same manner with the solvent blank. Applications were made so that all treated plant material received the same concentrations of acetone and crop oil concentrate.
(§15) The treated plants and control plants were placed in a greenhouse as described above and water was added as needed to maintain a paddy flood. […]

ECHCG = assay: In-water applied (paddy) greenhouse weed control, ECHCG; type: in vivo, Echinochloa crusgalli (L.) Beauv.; conditions: 19 DAA
Description: as §8, §9, §10, §11, §12, §13, §14, §15

ECHOR = assay: In-water applied (paddy) greenhouse weed control, ECHOR; type: in vivo, Echinochloa oryzoides (Ard.) Fritsch; conditions: 19 DAA
Description: as §8, §9, §10, §11, §12, §13, §14, §15

FIMMI = assay: In-water applied (paddy) greenhouse weed control, FIMMI; type: in vivo, Fimbristylis miliacea (L.) Vahl; conditions: 19 DAA
Description: as §8, §9, §10, §11, §12, §13, §14, §15

CYPIR = assay: Postemergence foliar-applied greenhouse weed control, CYPIR; type: in vivo, Cyperus iria L.; conditions: 22 DAA
Excerpt: as §1, §2, §3, §4, §5, §6, §7

DIGSA = assay: Postemergence foliar-applied greenhouse weed control, DIGSA; type: in vivo, Digitaria sanguinalis (L.) Scop.; conditions: 21 DAA
Excerpt: as §1, §2, §3, §4, §5, §6, §7

ECHCO = assay: Postemergence foliar-applied greenhouse weed control, ECHCO; type: in vivo, Echinochloa colona (L.) Link; conditions: 21 DAA
Excerpt: as §1, §2, §3, §4, §5, §6, §7

O=C(O)c1ccccc1C(=O)Nc1cccc2ccccc12 [Naptalam, 2-[(1-naphthalenylamino)carbonyl]benzoic acid, reference compound]
Visual Weed Control (%) Obs (BRAPP; 22 DAA, 30 gai/ha): 0% | Visual Weed Control (%) Obs (BRAPP; 22 DAA, 60 gai/ha): 0% | Visual Weed Control (%) Obs (BRAPP; 22 DAA, 120 gai/ha): 0% | Visual Weed Control (%) Obs (IPOHE; 22 DAA, 60 gai/ha): 15% | Visual Weed Control (%) Obs (IPOHE; 22 DAA, 120 gai/ha): 15% | Visual Weed Control (%) Obs (LEFCH; 22 DAA, 60 gai/ha): 15% | Visual Weed Control (%) Obs (LEFCH; 22 DAA, 120 gai/ha): 15% | Visual Weed Control (%) Obs (CYPRO; 330 gai/ha): 0% | Visual Weed Control (%) Obs (CYPRO; 1320 gai/ha): 50% | Visual Weed Control (%) Obs (ECHCG; 330 gai/ha): 20% | Visual Weed Control (%) Obs (ECHOR; 330 gai/ha): 20% | Visual Weed Control (%) Obs (ECHOR; 660 gai/ha): 25% | Visual Weed Control (%) Obs (ECHOR; 1320 gai/ha): 30% | Visual Weed Control (%) Obs (FIMMI; 330 gai/ha): 50%

COC(=O)C1(O)c2ccccc2-c2ccccc21 [Flurenol-methyl]
Visual Weed Control (%) Obs (BRAPP; 22 DAA, 68.75 gai/ha): 0% | Visual Weed Control (%) Obs (BRAPP; 22 DAA, 137.5 gai/ha): 0% | Visual Weed Control (%) Obs (BRAPP; 22 DAA, 275 gai/ha): 30% | Visual Weed Control (%) Obs (CYPIR; 68.75 gai/ha): 0% | Visual Weed Control (%) Obs (CYPIR; 137.5 gai/ha): 0% | Visual Weed Control (%) Obs (CYPIR; 275 gai/ha): 60% | Visual Weed Control (%) Obs (CYPRO; 68.75 gai/ha): 0% | Visual Weed Control (%) Obs (CYPRO; 137.5 gai/ha): 0% | Visual Weed Control (%) Obs (ECHCG; 68.75 gai/ha): 0% | Visual Weed Control (%) Obs (ECHCG; 137.5 gai/ha): 0% | Visual Weed Control (%) Obs (ECHCG; 275 gai/ha): 0% | Visual Weed Control (%) Obs (FIMMI; 68.75 gai/ha): 0% | Visual Weed Control (%) Obs (FIMMI; 137.5 gai/ha): 0% | Visual Weed Control (%) Obs (FIMMI; 275 gai/ha): 20%

C/C(=N\NC(=O)Nc1cc(F)cc(F)c1)c1ncccc1C(=O)O [Diflufenzopyr, 2-{(E)-1-[4-(3,5-difluorophenyl)-semicarbazono]-ethyl}nicotinic acid]
Visual Weed Control (%) Obs (BRAPP; 21 DAA, 8.75 gai/ha): 0% | Visual Weed Control (%) Obs (BRAPP; 21 DAA, 17.5 gai/ha): 40% | Visual Weed Control (%) Obs (BRAPP; 21 DAA, 35 gai/ha): 80% | Visual Weed Control (%) Obs (DIGSA; 17.5 gai/ha): 10% | Visual Weed Control (%) Obs (DIGSA; 35 gai/ha): 20% | Visual Weed Control (%) Obs (ECHCO; 8.75 gai/ha): 30% | Visual Weed Control (%) Obs (ECHCO; 17.5 gai/ha): 30% | Visual Weed Control (%) Obs (ECHCO; 35 gai/ha): 40% | Visual Weed Control (%) Obs (IPOHE; 21 DAA, 8.75 gai/ha): 75% | Visual Weed Control (%) Obs (IPOHE; 21 DAA, 17.5 gai/ha): 70% | Visual Weed Control (%) Obs (LEFCH; 21 DAA, 8.75 gai/ha): 0% | Visual Weed Control (%) Obs (LEFCH; 21 DAA, 17.5 gai/ha): 10%
